From patent US12612388B2, “Receptor-interacting protein 1 inhibitors including piperazine heterocyclic amide ureas” (SIRONAX LTD., priority 2020, dated 2026)

System: HT-29 cells
Experiment: Cellular RIP1 inhibitory activity: necroptosis of HT-29 cells induced by TNF-α/SMAC mimetic/zVAD-FMK, CellTiter-Glo viability
Format: cell-based
Conditions: Homo sapiens, HT-29, 20 h, read-out: EC50 (Cell activity; Necrosis or Necroptosis Inhibitory Activity)
Description: In Table 2, activity is provided as follows: +++=0.1 nM≤EC50<100 nM; ++=100 nM≤EC50K<1000 nM; +=1000 nM≤EC50K<10000 nM.
Compounds 1-67 (denoted as Compound Nos. 1 through 67 in Table 1) of the disclosure were tested for binding and cellular RIP1 inhibitory activity following the experimental procedures described below.
Cell line: HT-29 (ATCC® HTB-38™)
Culture medium: McCOY's 5A, Gibco, Cat No. 16600-082
DMSO: Sigma, Cat No. 67-68-5, 1 L
Assay plate: Corning #3903
Compound dilution plate: Corning #3357
Inducers: TNFα, GenScript, Cat No. Z01001-50,
SmacM, Cat. No., HY-15989, MedChemExpress (MCE)
Z_VAD FMK, TargetMol, T6013
Cell Titer-Glo® Luminescent Cell Viability Assay Kit: Promega, Cat No. G7573
1. HT-29 cells were checked every day to make sure that they were healthy and growing as expected. They were subjected to sub-culturing when they were approximately 80% confluent.
2. The culture medium, McCOY's 5A medium (Gibco, Cat No. 16600-082) with 10% fetal bovine serum or FBS (Gibco, Cat No. 10099-141C), was pre-warmed in a 37° C. water bath for at least 30 min.
3. When the cells had reached a desired level of confluency of 80% in a T75 flask, the medium was aspirated, and the cells were washed with warm phosphate buffered saline or PBS two times.
4. 2-3 ml fresh warm trypsin (Gibco, Cat No. 25200-056) solution was added to the washed cells. The flask with the cells was transferred to a 37° C. incubator.
5. After 5 minutes, the side of the flask was tapped, and the flask was examined under a microscope for detachment of the cells to the flask. If necessary, the cells were kept in the incubator for an additional 5-10 minutes, with occasional tapping, until lifting was complete.
6. The trypsin reaction was neutralized by transferring 6-9 ml cell culture medium to sterile 15 ml conical tubes, and by centrifuging the cell culture at 300×g for 7 minutes to pellet the cells (supernatant decanted).
7. The cells were resuspended in fresh cell culture medium and the cell counting was performed using a hemocytometer.
8. 100 μl of the resuspended cell culture medium containing ˜5,000 cells were transferred into each well of the sterile 96-well cell culture plate (Corning 3903) and cultured overnight at 37° C. with 5% CO2.
Compound Titration and Treatment
1. All test compounds were dissolved in DMSO (Dimethyl sulfoxide) to create a 20 mM stock.
2. 3 μl of each compound 20 mM stock was mixed with 27 μl DMSO, and the compound solution was further diluted at a titration ratio of 1:3 (20 μl compound solution+40 μl DMSO) till the 10 points end.
3. All culture medium was removed from assay plates filled with HT-29 cell cultures. The cells were then washed with 1 PBS, and resuspended in fresh, FBS-free McCOY's 5A medium containing a cocktail of TNF-α (10 ng/ml), a SMAC mimetic compound (6 μM) and Z-VAD-fluoromethylketone or zVAD-FMK (10 μM) to stimulate the HT-29 cells to increase RIP1 kinase levels and necroptosis.
4. 0.5 μL of the diluted compound solution was added to the corresponding 96-well assay plates.
5. The assay plates were incubated for 20 hours at 37° C. with 5% CO2.
1. The CellTiter-Glo® Luminescent Cell Viability Assay was employed to detect the ATP levels of viable HT-29 cells.
2. The CellTiter-Glo® buffer and the lyophilized substrate were equilibrated to room temperature prior to use.
3. The CellTiter-Glo® substrate was resuspended with CellTiter-Glo® buffer, then mixed by gently vortexing to obtain a homogeneous solution.
4. 20 μl the enzyme/substrate mixture was transferred by multi-channel pipetting into 96-well assay plates.
5. The assay plates were placed on an orbital shaker and the contents were shaken for 3 minutes to induce cell lysis.
6. The assay plates were incubated at room temperature for 10 minutes to stabilize the luminescent signal.
7. The luminescence signals were read and recorded with EnVision.
8. The geometric mean EC50 values were calculated from 10 points response dose with duplicates. […]

`O=C(c1nc(N2CCN(C(=O)N3N=CC[C@H]3c3cc(F)cc(F)c3)CC2)ncc1F)N1CCC1` [Compound 7, (S)-azetidin-1-yl(2-(4-(5-(3,5-difluorophenyl)-4,5-dihydro-1H-pyrazole-1-carbonyl)piperazin-1-yl)-5-fluoropyrimidin-4-yl)methanone] and `O=C(c1ccnc(N2CCN(C(=O)N3N=CC[C@H]3c3cc(F)cc(F)c3)CC2)n1)N1CCC1` [Compound 36, (S)-azetidin-1-yl(2-(4-(5-(3,5-difluorophenyl)-4,5-dihydro-1H-pyrazole-1-carbonyl)piperazin-1-yl)pyrimidin-4-yl)methanone] fall in the same range of EC50: 0.1 to 100 nM for the first, 0.1 to 100 nM for the second.

Same assay, conditions: Homo sapiens; HT-29 cells; TNF-α 10 ng/ml, SMAC mimetic 6 μM, zVAD-FMK 10 μM; 20 hours; geometric mean, 10 points, duplicates; read-out: EC50 (Cell activity; Necrosis or Necroptosis Inhibitory Activity)

`COC1CN(C(=O)c2nc(N3CCN(C(=O)N4N=CC[C@H]4c4cncc(F)c4)CC3)ncc2F)C1` [Compound 52, (S)-(5-fluoro-2-(4-(5-(5-fluoropyridin-3-yl)-4,5-dihydro-1H-pyrazole-1-carbonyl)piperazin-1-yl)pyrimidin-4-yl)(3-methoxyazetidin-1-yl)methanone] and `CN(C)C1CN(C(=O)c2nc(N3CCN(C(=O)N4N=CC[C@H]4c4cc(F)cc(F)c4)CC3)ncc2F)C1` [Compound 33, (S)-(5-(3,5-difluorophenyl)-4,5-dihydro-1H-pyrazol-1-yl)(4-(4-(3-(dimethylamino)azetidine-1-carbonyl)-5-fluoropyrimidin-2-yl)piperazin-1-yl)methanone] fall in the same range of EC50: 0.1 to 100 nM for the first, 0.1 to 100 nM for the second.

`NC(=O)[C@@H]1CCN(C(=O)c2nc(N3CCN(C(=O)N4N=CC[C@H]4c4cc(F)cc(F)c4)CC3)ncc2F)C1` [Compound 27, (R)-1-(2-(4-((S)-5-(3,5-difluorophenyl)-4,5-dihydro-1H-pyrazole-1-carbonyl)piperazin-1-yl)-5-fluoropyrimidine-4-carbonyl)pyrrolidine-3-carboxamide] and `NC(=O)C1CN(C(=O)c2nc(N3CCN(C(=O)N4N=CC[C@H]4c4cc(F)cc(F)c4)CC3)ncc2F)C1` [Compound 30, (S)-1-(2-(4-(5-(3,5-difluorophenyl)-4,5-dihydro-1H-pyrazole-1-carbonyl)piperazin-1-yl)-5-fluoropyrimidine-4-carbonyl)azetidine-3-carboxamide] fall in the same range of EC50: 0.1 to 100 nM for the first, 0.1 to 100 nM for the second.

`CN(C(=O)c1nc(N2CCN(C(=O)N3N=CC[C@H]3c3cc(F)cc(F)c3)CC2)ncc1F)C1CC1` [Compound 9, (S)—N-cyclopropyl-2-(4-(5-(3,5-difluorophenyl)-4,5-dihydro-1H-pyrazole-1-carbonyl)piperazin-1-yl)-5-fluoro-N-methylpyrimidine-4-carboxamide] and `CCN(O)C(=O)c1nc(N2CCN(C(=O)N3N=CC[C@H]3c3cc(F)cc(F)c3)CC2)ncc1F` [Compound 11, (S)-2-(4-(5-(3,5-difluorophenyl)-4,5-dihydro-1H-pyrazole-1-carbonyl)piperazin-1-yl)-N-ethyl-5-fluoro-N-hydroxypyrimidine-4-carboxamide] fall in the same range of EC50: 0.1 to 100 nM for the first, 0.1 to 100 nM for the second.

`CN(CC#N)C(=O)c1nc(N2CCN(C(=O)N3N=CC[C@H]3c3cc(F)cc(F)c3)CC2)ncc1F` [Compound 34, (S)—N-(cyanomethyl)-2-(4-(5-(3,5-difluorophenyl)-4,5-dihydro-1H-pyrazole-1-carbonyl)piperazin-1-yl)-5-fluoro-N-methylpyrimidine-4-carboxamide] and `CCOC(=O)c1nc(N2CCN(C(=O)N3N=CC[C@H]3c3cc(F)cc(F)c3)CC2)ncc1F` [Compound 47] fall in the same range of EC50: 0.1 to 100 nM for the first, 0.1 to 100 nM for the second.

`CC(C)OC1CN(C(=O)c2ccnc(N3CCN(C(=O)N4N=CC[C@H]4c4cc(F)cc(F)c4)CC3)n2)C1` [Compound 37, (S)-(5-(3,5-difluorophenyl)-4,5-dihydro-1H-pyrazol-1-yl)(4-(4-(3-isopropoxyazetidine-1-carbonyl)pyrimidin-2-yl)piperazin-1-yl)methanone] and `CNC(=O)c1ccnc(N2CCN(C(=O)N3N=CC[C@H]3c3cc(F)cc(F)c3)CC2)n1` [Compound 46, (S)-2-(4-(5-(3,5-difluorophenyl)-4,5-dihydro-1H-pyrazole-1-carbonyl)piperazin-1-yl)-N-methylpyrimidine-4-carboxamide] fall in the same range of EC50: 0.1 to 100 nM for the first, 0.1 to 100 nM for the second.

`O=C(c1nc(N2CCN(C(=O)N3N=CC[C@H]3c3cc(F)cc(F)c3)CC2)ncc1F)N1CC(F)(F)C1` [Compound 12, (S)-(3,3-difluoroazetidin-1-yl)(2-(4-(5-(3,5-difluorophenyl)-4,5-dihydro-1H-pyrazole-1-carbonyl)piperazin-1-yl)-5-fluoropyrimidin-4-yl)methanone] and `O=C(c1nc(N2CCN(C(=O)N3N=CC[C@H]3c3cc(F)cc(F)c3)CC2)ncc1F)N1CC2(COC2)C1` [Compound 14, (5-(3,5-difluorophenyl)-4,5-dihydro-1H-pyrazol-1-yl)(4-(5-fluoro-4-(2-oxa-6-azaspiro[3.3]heptane-6-carbonyl)pyrimidin-2-yl)piperazin-1-yl)methanone] fall in the same range of EC50: 0.1 to 100 nM for the first, 0.1 to 100 nM for the second.

`N#Cc1cncc([C@@H]2CC=NN2C(=O)N2CCN(c3nccc(C(N)=O)n3)CC2)c1` [Compound 43, (S)-2-(4-(5-(5-cyanopyridin-3-yl)-4,5-dihydro-1H-pyrazole-1-carbonyl)piperazin-1-yl)pyrimidine-4-carboxamide] and `NC(=O)c1cncc(N2CCN(C(=O)N3N=CC[C@H]3c3cc(F)cc(F)c3)CC2)n1` [Compound 39, (S)-6-(4-(5-(3,5-difluorophenyl)-4,5-dihydro-1H-pyrazole-1-carbonyl)piperazin-1-yl)pyrazine-2-carboxamide] fall in the same range of EC50: 100 to 1000 nM for the first, 100 to 1000 nM for the second.

`CN(C)CC1CN(C(=O)c2nc(N3CCN(C(=O)N4N=CC[C@H]4c4cc(F)cc(F)c4)CC3)ncc2F)C1` [Compound 28, (S)-(5-(3,5-difluorophenyl)-4,5-dihydro-1H-pyrazol-1-yl)(4-(4-(3-((dimethylamino)methyl)azetidine-1-carbonyl)-5-fluoropyrimidin-2-yl)piperazin-1-yl) methanone] and `N#C[C@H]1CCN(C(=O)c2nc(N3CCN(C(=O)N4N=CC[C@H]4c4cc(F)cc(F)c4)CC3)ncc2F)C1` [Compound 15, (3S)-1-(2-(4-(5-(3,5-difluorophenyl)-4,5-dihydro-1H-pyrazole-1-carbonyl)piperazin-1-yl)-5-fluoropyrimidine-4-carbonyl)pyrrolidine-3-carbonitrile] fall in the same range of EC50: 0.1 to 100 nM for the first, 0.1 to 100 nM for the second.

Compared with `CONC(=O)c1nc(N2CCN(C(=O)N3N=CC[C@H]3c3cc(F)cc(F)c3)CC2)ncc1F` [Compound 3, (S)-2-(4-(5-(3,5-difluorophenyl)-4,5-dihydro-1H-pyrazole-1-carbonyl)piperazin-1-yl)-5-fluoro-N-methoxypyrimidine-4-carboxamide], `O=C(c1nc(N2CCN(C(=O)N3N=CC[C@H]3c3cc(F)cc(F)c3)CC2)ncc1F)N1CCCCC1` [Compound 17, (5-(3,5-difluorophenyl)-4,5-dihydro-1H-pyrazol-1-yl)(4-(5-fluoro-4-(piperidine-1-carbonyl)pyrimidin-2-yl)piperazin-1-yl)methanone] is lower in EC50: 100 to 1000 nM for the first, 0.1 to 100 nM for the second.

`N#C[C@@H]1CCN(C(=O)c2nc(N3CCN(C(=O)N4N=CC[C@H]4c4cc(F)cc(F)c4)CC3)ncc2F)C1` [Compound 16, (3R)-1-(2-(4-(5-(3,5-difluorophenyl)-4,5-dihydro-1H-pyrazole-1-carbonyl)piperazin-1-yl)-5-fluoropyrimidine-4-carbonyl)pyrrolidine-3-carbonitrile] was tested, and the EC50 was 0.1 to 100 nM.
